Patent US8017557B2, “Benzodioxole derivatives as modulators of proteolytic activity in plants” (Endura S.p.A., priority 2002, dated 2011)
Read-outs that look alike come from different tables or passages of the source.

Columns and labels:
[1] = target: bromelain (Ananas comosus, UniProt P14518); settings: for initial velocity, Mean / initial velocity, test 1 / initial velocity, test 2 / Mean (% contr.): 1% PBO; for Mean (% contr.): % of control
Protocol: The assay was carried out as described in Heinrikson & Kezdy, 1976, Methods in Enzymol. 45, p. 740. The conditions are summarised briefly herein: 50 μg of bromelain was mixed with variable quantities of Na CBZ-L-lysine p-nitrophenyl ester substrate in 3 ml of 10 mM acetate buffer pH 4.6 containing KCl (0.1 M) and L-cystein (1 mM).

[2] = system: endopeptidase activity in cotton leaves; test: Radial Diffusion Assay (RDA) of endopeptidase activity in cotton plants; type: in vivo, cotton (cv. Sicala V2i); settings: for Endopeptidase activity, cv. V2i Bt PBO: U = trypsin equivalents
Protocol: The […] of the clear zone produced by the plant extracts was compared to a standard curve obtained by a serial dilution of trypsin. A standard solution of trypsin was used to plot a standard curve for each sample plate, thus the endopeptidase activity was expressed as units of trypsin equivalents. For each extract, the amount of soluble proteins in mg was determined by the Biuret method and the enzymatic activity was then expressed as specific activity i.e. Units/mg soluble proteins. Abscissa: time (days); ordinate: trypsin units/mg soluble protein.
The samples were collected at different development stages of plants, which were: […], 60 and 85 days after sowing. These samples were also analysed for determining the Bt content (as described in example 4). To this aim, the enzymatic activity was tested on crude freeze dried leaf extracts with two different assays: the Radial Diffusion Assay (RDA), in which a protein, such as the bovine gelatine, was used as a substrate to test the endopeptidase activity, and a photometric assay described in the next example, in which DL-BAPA was used as a substrate, to determine a general peptidase activity.
A powder aliquot, which represents each step of plant growth, of the treated and controls samples was extracted in two steps. The powder sample was extracted with buffer 0.1 M Tris-HCl pH 7.7 (1:20 w/v) using an Ultraturrax blender at 24,000×RPM for 2 min in a ice bath to avoid overheating. […] The clear supernatant was collected and filtrated with Whatman paper no 4. The pellet was further extracted with the same procedure, with the exception that in this case the extraction ratio was 1:10 (w/v). Finally, the supernatants of the two extractions processes were joined and then concentrated 4-5 times by centrifugation at 3,000×g at 15° C. for 2 hours, using suitable concentrators (Amicon Inc. Beverly, Mass.—USA), fitted with a membrane of 10 κD cut off.
For each extract, the amount of soluble proteins was determined by the Biuret method and the enzymatic activity was then expressed as specific activity i.e. Units/mg soluble proteins.
RDA was performed as described in Santarius, K. and Ryan, C., Anal. Biochem., 1977, 77: 1-9 in Petri dishes containing bovine gelatine as substrate, dispersed in agar gel. Each dish contained 5 wells of which 4 were filled with suitable aliquots of concentrated cotton extracts, whereas one was filled with a bovine β-trypsin as standard solution (0.2 U/ml). The dishes were covered and sealed with a plastic film to avoid evaporation and then incubated at 37° C. for 16 hours.
The enzymatic activity in the protein-agar gel produced a clear radial diffusion zone around each circular wells, due to the bovine gelatine proteolysis against an opaque background.
The trypsin equivalents were calculated by measuring the radii of the clear zones produced by the plant extracts and compared to a standard curve obtained by a serial dilution of trypsin. Each dish contained a standard solution of trypsin that was used to plot a standard curve for each plate, thus the endopeptidase activity was expressed as units of trypsin equivalents.
Each analysis was performed in quadruplicate. […] In table 6 are shown the differences between treated and untreated cotton samples as percentages.

[3] = PBO 0.334 % (w/w), substrate 240 μM
[4] = PBO 0.5 % (w/w), substrate 240 μM
[5] = PBO 0.667 % (w/w), substrate 240 μM
[6] = PBO 1 % (w/w), substrate 240 μM
[7] = PBO 1.334 % (w/w), substrate 240 μM
[8] = PBO 1.667 % (w/w), substrate 240 μM

Chain of bromelain (P14518 whole entry): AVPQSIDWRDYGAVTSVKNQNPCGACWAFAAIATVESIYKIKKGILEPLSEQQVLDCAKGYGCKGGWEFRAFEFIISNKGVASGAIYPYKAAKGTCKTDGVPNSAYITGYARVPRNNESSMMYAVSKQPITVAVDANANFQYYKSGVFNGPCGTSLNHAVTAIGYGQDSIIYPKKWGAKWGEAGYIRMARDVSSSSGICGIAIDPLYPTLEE

## CCCCOCCOCCOCc1cc2c(cc1CCC)OCO2 [PBO, 5-[[2-(2-Butoxyethoxy)ethoxy]methyl]-6-propyl-1,3-benzodioxole]
[1]; substrate 24 μM
  initial velocity, Mean: 0.0136 absorbance at 340 nm/min
  initial velocity, test 1: 0.0141 absorbance at 340 nm/min
  initial velocity, test 2: 0.0130 absorbance at 340 nm/min
  Mean (% contr.): 68%
[1]; substrate 48 μM
  initial velocity, Mean: 0.0270 absorbance at 340 nm/min
  initial velocity, test 1: 0.0243 absorbance at 340 nm/min
  initial velocity, test 2: 0.0297 absorbance at 340 nm/min
  Mean (% contr.): 68%
[1]; substrate 96 μM
  initial velocity, Mean: 0.0490 absorbance at 340 nm/min
  initial velocity, test 1: 0.0518 absorbance at 340 nm/min
  initial velocity, test 2: 0.0461 absorbance at 340 nm/min
  Mean (% contr.): 78%
[1]; [3]
  Initial velocity (% of control), Exp. 1: 95%
  Initial velocity (% of control), Exp. 2: 98%
  Initial velocity, Exp. 1: 0.1306 absorbance at 340 nm/min
  Initial velocity, Exp. 2: 0.1197 absorbance at 340 nm/min
  Initial velocity, Exp. 3: 0.1029 absorbance at 340 nm/min
[1]; [4]
  Initial velocity (% of control), Exp. 1: 91%
  Initial velocity, Exp. 1: 0.1252 absorbance at 340 nm/min
[1]; [5]
  Initial velocity (% of control), Exp. 2: 88%
  Initial velocity, Exp. 2: 0.1079 absorbance at 340 nm/min
[1]; [6]
  Initial velocity (% of control), Exp. 1: 86%
  Initial velocity (% of control), Exp. 2: 86%
  Initial velocity, Exp. 1: 0.1194 absorbance at 340 nm/min
  Initial velocity, Exp. 2: 0.1057 absorbance at 340 nm/min
[1]; [7]
  Initial velocity (% of control), Exp. 2: 84%
  Initial velocity, Exp. 2: 0.1029 absorbance at 340 nm/min
[1]; [8]
  Initial velocity (% of control), Exp. 2: 76%
  Initial velocity, Exp. 2: 0.0927 absorbance at 340 nm/min
[1]; substrate 240 μM, concentration dependent
  PBO concentration with inhibitory activity on bromelain: higher than 0.5%
[2]; 4 days after sowing
  Difference % Treated minus untreated (endopeptidase, RDA): 9.15%
  Endopeptidase activity, cv. V2i Bt PBO: 5.90 U/mg protein
[2]; 35 days after sowing
  Difference % Treated minus untreated (endopeptidase, RDA): −5.35%
  Endopeptidase activity, cv. V2i Bt PBO: 8.04 U/mg protein
[2]; 60 days after sowing
  Difference % Treated minus untreated (endopeptidase, RDA): −39.31%
  Endopeptidase activity, cv. V2i Bt PBO: 4.07 U/mg protein
[2]; 85 days after sowing
  Difference % Treated minus untreated (endopeptidase, RDA): −16.42%
  Endopeptidase activity, cv. V2i Bt PBO: 4.14 U/mg protein
